One assay has as its target T1, Interstitial collagenase (Homo sapiens, UniProt P03956).
T1 sequence (P03956 whole entry): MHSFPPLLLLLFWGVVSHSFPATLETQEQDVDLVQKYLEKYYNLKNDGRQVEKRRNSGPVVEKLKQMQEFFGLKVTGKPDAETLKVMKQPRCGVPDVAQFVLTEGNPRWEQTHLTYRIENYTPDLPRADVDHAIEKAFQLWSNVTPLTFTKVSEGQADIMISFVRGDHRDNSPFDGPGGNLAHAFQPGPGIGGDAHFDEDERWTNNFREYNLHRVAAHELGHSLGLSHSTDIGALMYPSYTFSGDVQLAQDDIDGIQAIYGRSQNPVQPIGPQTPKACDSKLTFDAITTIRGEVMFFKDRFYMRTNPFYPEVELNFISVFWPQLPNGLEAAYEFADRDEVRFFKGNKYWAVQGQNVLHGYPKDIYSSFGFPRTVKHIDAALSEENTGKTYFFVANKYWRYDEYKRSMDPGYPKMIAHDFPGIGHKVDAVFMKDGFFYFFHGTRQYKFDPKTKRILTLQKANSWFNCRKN
Put plainly: Inhibition of MMP-1 (human fibroblast collagenase).

The next assay addresses Stromelysin-1 (Homo sapiens, UniProt P08254). Nature of the assay: Inhibition of MMP-3 (human fibroblast stromelysin).
Another assay is filed under the species Homo sapiens. Put plainly: Compound was tested for its ability to suppress the release of TNF-alpha (TNF-WBA) in human whole blood after stimulation with LPS. The assay is classed as functional, organism-based.
Assay [1] deals with Matrix metalloproteinase-9 (Homo sapiens, UniProt P14780). Nature of the assay: Inhibition of MMP-9 (matrix metalloprotease-9, gelatinase B).
Sequence of Matrix metalloproteinase-9 (P14780 whole entry): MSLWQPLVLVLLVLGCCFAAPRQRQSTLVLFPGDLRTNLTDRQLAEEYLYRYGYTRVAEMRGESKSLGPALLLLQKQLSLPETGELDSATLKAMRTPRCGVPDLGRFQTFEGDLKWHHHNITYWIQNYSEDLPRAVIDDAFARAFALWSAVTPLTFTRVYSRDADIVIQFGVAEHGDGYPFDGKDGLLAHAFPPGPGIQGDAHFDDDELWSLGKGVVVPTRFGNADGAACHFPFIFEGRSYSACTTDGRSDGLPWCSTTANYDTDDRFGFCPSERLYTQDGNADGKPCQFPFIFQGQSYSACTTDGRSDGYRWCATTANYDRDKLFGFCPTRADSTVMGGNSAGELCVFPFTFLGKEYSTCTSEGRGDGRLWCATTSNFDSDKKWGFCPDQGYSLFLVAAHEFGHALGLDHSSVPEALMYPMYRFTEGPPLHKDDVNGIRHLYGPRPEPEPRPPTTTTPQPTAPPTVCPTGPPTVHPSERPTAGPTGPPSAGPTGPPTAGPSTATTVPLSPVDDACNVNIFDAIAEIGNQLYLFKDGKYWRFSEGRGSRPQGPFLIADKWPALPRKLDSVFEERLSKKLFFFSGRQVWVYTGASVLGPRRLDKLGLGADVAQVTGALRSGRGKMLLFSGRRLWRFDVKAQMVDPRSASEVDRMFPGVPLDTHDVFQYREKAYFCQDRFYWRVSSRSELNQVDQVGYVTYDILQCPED

For orientation: Ki means the dissociation constant of the complex between target and ligand, obtained from inhibition or displacement. What is called IC50 is the concentration that inhibits the measured activity by half. Low values mean higher potency, high ones lower potency.

Sequence of Stromelysin-1 (P08254 whole entry): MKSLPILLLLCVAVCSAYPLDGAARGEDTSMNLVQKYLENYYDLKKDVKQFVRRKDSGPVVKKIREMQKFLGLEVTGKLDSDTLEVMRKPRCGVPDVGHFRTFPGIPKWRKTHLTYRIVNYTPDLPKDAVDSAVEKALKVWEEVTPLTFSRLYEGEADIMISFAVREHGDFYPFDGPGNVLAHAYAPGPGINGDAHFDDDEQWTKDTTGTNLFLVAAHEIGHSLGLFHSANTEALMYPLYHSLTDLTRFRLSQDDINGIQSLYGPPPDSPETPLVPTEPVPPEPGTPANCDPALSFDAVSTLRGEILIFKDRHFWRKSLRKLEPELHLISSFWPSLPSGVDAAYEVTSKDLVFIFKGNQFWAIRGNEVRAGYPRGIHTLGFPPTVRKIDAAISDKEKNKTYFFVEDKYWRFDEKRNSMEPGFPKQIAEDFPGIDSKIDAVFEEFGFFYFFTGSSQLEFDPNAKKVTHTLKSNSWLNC

Turning to `CNC(=O)[C@@H]1CCCCN(S(=O)(=O)c2cn(C)cn2)CCC[C@H](C(=O)NO)[C@@H](CC(C)C)C(=O)N1`, the Ki on Interstitial collagenase is below 1 nM; on Stromelysin-1 it was 12 nM; in assay [1], 2.7 nM. The molecule also showed a half-inhibitory concentration (IC50) in the assay listed under Homo sapiens of 1400 nM.
As for `CNC(=O)[C@@H]1CCCCN(S(=O)(=O)c2ccccc2)CCC[C@H](C(=O)NO)[C@@H](CC(C)C)C(=O)N1`, the figures for the inhibition constant Ki (at Interstitial collagenase; on Stromelysin-1; in assay [1]) were below 1 nM, 3.4 nM and below 1 nM, respectively. This molecule also gave an IC50 in the assay listed under Homo sapiens of 1300 nM.
Turning to `CNC(=O)[C@@H]1CCCCNCCC[C@H](C(=O)NO)[C@@H](CC(C)C)C(=O)N1`, the figures for the Ki (at Interstitial collagenase; in assay [1]) were below 1 nM and 12.8 nM, respectively. Half-maximal inhibition in the assay listed under Homo sapiens (IC50) required 2700 nM.
Take `CNC(=O)[C@@H]1CCCCN(S(=O)(=O)c2ccc(N)cc2)CCC[C@H](C(=O)NO)[C@@H](CC(C)C)C(=O)N1`: the Ki on Interstitial collagenase is below 1 nM; on Stromelysin-1 it was 99 nM; in assay [1], 1.6 nM. Besides, the IC50 in the assay listed under Homo sapiens was 950 nM.
For the molecule `CNC(=O)[C@@H]1CCCCN(S(=O)(=O)c2c(C)cc(C)cc2C)CCC[C@H](C(=O)NO)[C@@H](CC(C)C)C(=O)N1`, the inhibition constant Ki on Interstitial collagenase is 2.3 nM; on Stromelysin-1 it was 15 nM; in assay [1], below 1 nM. In addition, the half-inhibitory concentration (IC50) in the assay listed under Homo sapiens is 1600 nM.
As for `CNC(=O)[C@@H]1CCCCN(C(=O)OC(C)(C)C)CCC[C@H](C(=O)NO)[C@@H](CC(C)C)C(=O)N1`, the Ki at Interstitial collagenase was below 1 nM; on Stromelysin-1, 3 nM; in assay [1], below 1 nM. This molecule also gave a half-inhibitory concentration (IC50) in the assay listed under Homo sapiens of 1400 nM.
Take `CNC(=O)[C@@H]1CCCCN(S(=O)(=O)C(F)(F)F)CCC[C@H](C(=O)NO)[C@@H](CC(C)C)C(=O)N1`: the values for the Ki (at Interstitial collagenase; at Stromelysin-1; in assay [1]) were 4 nM, 118 nM and below 1 nM, respectively. In addition, the IC50 in the assay filed under Homo sapiens worked out at 1300 nM.

(Values after ChEMBL document CHEMBL1132042, “Macrocyclic hydroxamate inhibitors of matrix metalloproteinases and TNF-alpha production” (Bioorg Med Chem Lett, 1999).)
